Residues, ends and D or L forms follow the SMILES beside them.
Biological target: T1, TSH receptor on human thyroid membranes (Homo sapiens, UniProt P16473)
T1 construct: Thyroid tissue obtained at surgery from patients with Graves' disease was prepared as described by Takahashi et al; from tissue; host or cells: human thyroid tissue from Graves' disease patients, 2000xg membrane fraction
Assay: TSH radioreceptor assay: inhibition of 125I-bTSH binding to human thyroid membrane preparations
Conditions: for IC50: read-out: bTSH ED50 (effective dose necessary to inhibit binding of 125I-bTSH by 50%)
Protocol: Thyroid tissue obtained at surgery from patients with Graves' disease was prepared as described by Takahashi et al., J. Clin. Endocrinol. Metab. 47:870 (1978), the disclosure of which is incorporated herein. Briefly, the tissue was dissected free of fibrous material, minced with scissors, and homogenized with Polytron homogenizer. The 2000×g fraction was collected by centrifugation, washed and resuspended in 40 mM Tris, 0.1% Bovine Serum Albumin (BSA) pH 7.4 at a concentration of 100 mg equivalents of wet tissue per milliliter. The preparation was stored at -70° C. until used for assay.
Highly purified bovine TSH (30 IU/mg, supplied by Dr. J. G. Pierce, UCLA) was radio-iodinated (Na^125 I, Amersham, Chicago) by a gentle lactoperoxidase procedure described by Takahashi et al., supra, then purified by Sephadex G-100 chromatography.
The membrane assay incubation mixture consisted of […] of the 2000×g membrane fraction, 0.125 ng ^125 I bTSH (approximately 20,000 cpm, 5×10^-12 M), 100 ul of 1% Triton X-100 and noted amounts of test materials in a final volume of 0.5 ml of 40 mM Tris-HCl pH 7.4 plus 0.1% BSA. Nonspecific binding was determined by addition of excess unlabeled bTSH (200 mU/ml, Sigma, St. Louis). After 2 hrs incubation at 25° C., 200 ul of 5 mg/ml bovine gamma globulin and 1 ml 30% polyethylene glycol 6000 (Baker, Phillipsburg, N.J.) in 1M NaCl was added to each tube and the tubes centrifuged at 4000 rpm for 25 minutes. The supernatants were aspirated and pellets counted in a gamma counter. Specific binding averaged 25% of total counts.
FIG. 1 reports 5×10^-12 M labeled bTSH incubated with 10 mg equivalents (wet weight) of 2000×g fraction of thyroid membranes with varying concentrations of unlabeled TSH or synthetic α-subunit peptides. Nonspecific binding was determined in the presence of excess unlabeled TSH.

[1] = human thyroid membrane homogenates, ± S.E.

T1 sequence (P16473 21-764): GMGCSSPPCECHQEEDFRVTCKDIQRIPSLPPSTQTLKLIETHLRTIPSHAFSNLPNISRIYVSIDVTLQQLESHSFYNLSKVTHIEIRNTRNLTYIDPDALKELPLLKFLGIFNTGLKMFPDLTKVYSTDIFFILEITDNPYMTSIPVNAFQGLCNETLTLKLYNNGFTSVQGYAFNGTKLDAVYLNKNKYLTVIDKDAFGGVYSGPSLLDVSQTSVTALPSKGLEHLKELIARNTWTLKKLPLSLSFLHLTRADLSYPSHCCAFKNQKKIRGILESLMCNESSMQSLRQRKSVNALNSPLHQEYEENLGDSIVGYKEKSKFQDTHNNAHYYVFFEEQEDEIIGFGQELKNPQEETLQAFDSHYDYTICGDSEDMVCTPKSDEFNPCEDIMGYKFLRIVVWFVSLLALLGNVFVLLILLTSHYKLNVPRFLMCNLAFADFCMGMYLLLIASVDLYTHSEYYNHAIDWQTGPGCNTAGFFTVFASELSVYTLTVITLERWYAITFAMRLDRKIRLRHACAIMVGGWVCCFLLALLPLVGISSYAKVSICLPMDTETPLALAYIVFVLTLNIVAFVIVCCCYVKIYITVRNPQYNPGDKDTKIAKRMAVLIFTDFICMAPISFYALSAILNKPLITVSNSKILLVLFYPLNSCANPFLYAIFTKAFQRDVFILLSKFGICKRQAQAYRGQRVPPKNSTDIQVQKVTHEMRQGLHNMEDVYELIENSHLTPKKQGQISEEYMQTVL

bTSH ED50 (effective dose necessary to inhibit binding of 125I-bTSH by 50%) [1] | Compound | IC50 [1] | displacement of 125I-bTSH label (at concentrations greater than 1×10^-5 m, FIG. 1)
– | CC(C)C[C@H](NC(=O)[C@@H](NC(=O)[C@H](CS)NC(=O)[C@H](CCC(=O)O)NC(=O)[C@@H]1CCCN1C(=O)[C@H](CS)NC(=O)[C@H](CC(=O)O)NC(=O)[C@H](CCC(N)=O)NC(=O)[C@@H](NC(=O)[C@H](CC(=O)O)NC(=O)[C@@H]1CCCN1C(=O)[C@H](C)N)C(C)C)[C@@H](C)O)C(=O)N[C@@H](CCC(N)=O)C(=O)N[C@@H](CCC(=O)O)C(=O)N[C@@H](CC(N)=O)C(N)=O [α1-15, Ala--Pro--Asp--Val--Gln--Asp--Cys--Pro--Glu--Cys--Thr--Leu--Gln--Glu--Asn] (H-APDVQDCPECTLQEN-NH2) | > 700 µM | –
no activity | CC[C@H](C)[C@H](NC(=O)[C@@H]1CCCN1C(=O)[C@H](C)NC(=O)CNC(=O)[C@@H]1CCCN1C(=O)[C@H](CCC(N)=O)NC(=O)[C@H](CO)NC(=O)[C@H](Cc1ccccc1)NC(=O)[C@H](Cc1ccccc1)NC(=O)[C@@H]1CCCN1C(=O)[C@H](CC(N)=O)NC(=O)[C@H](CCC(=O)O)NC(=O)[C@H](CCC(N)=O)NC(=O)[C@H](CC(C)C)NC(=O)[C@@H](N)[C@@H](C)O)C(N)=O [α11-25, Thr--Leu--Gln--Glu--Asn--Pro--Phe--Phe--Ser--Gln--Pro--Gly--Ala--Pro--Ile] (H-TLQENPFFSQPGAPI-NH2) | – | –
– | CC(C)C[C@H](NC(=O)[C@@H]1CCCN1C(=O)[C@@H](NC(=O)[C@@H]1CCCN1C(=O)[C@H](Cc1ccc(O)cc1)NC(=O)[C@H](C)NC(=O)[C@H](CCCNC(=N)N)NC(=O)[C@H](CO)NC(=O)[C@H](Cc1ccccc1)NC(=O)[C@H](CS)NC(=O)[C@@H](N)CS)[C@@H](C)O)C(=O)N[C@@H](CCCNC(=N)N)C(=O)N[C@@H](CO)C(=O)N[C@@H](CCCCN)C(=O)N[C@@H](CCCCN)C(N)=O [α31-45, Cys--Cys--Phe--Ser--Arg--Ala--Tyr--Pro--Thr--Pro--Leu--Arg--Ser--Lys--Lys] (H-CCFSRAYPTPLRSKK-NH2) | 31.2 ± 3.8 µM | more than 80%
– | CSCC[C@H](NC(=O)[C@@H](NC(=O)[C@H](CCCCN)NC(=O)[C@H](CCCCN)NC(=O)[C@H](CO)NC(=O)[C@H](CCCNC(=N)N)NC(=O)[C@@H](N)CC(C)C)[C@@H](C)O)C(=O)N[C@@H](CC(C)C)C(=O)N[C@H](C(=O)N[C@@H](CCC(N)=O)C(=O)N[C@@H](CCCCN)C(=O)N[C@@H](CC(N)=O)C(=O)N[C@H](C(=O)N[C@H](C(=O)N[C@@H](CO)C(N)=O)[C@@H](C)O)C(C)C)C(C)C [α41-55, Leu--Arg--Ser--Lys--Lys--Thr--Met--Leu--Val--Gln Lys--Asn--Val--Thr--Ser] (H-LRSKKTMLVQKNVTS-NH2) | 171 ± 28.3 µM | –
– | CC(C)[C@H](NC(=O)[C@H](CS)NC(=O)[C@H](CS)NC(=O)[C@@H](NC(=O)[C@H](CO)NC(=O)[C@H](CCC(=O)O)NC(=O)[C@H](CO)NC(=O)[C@@H](NC(=O)[C@@H](NC(=O)[C@H](CC(N)=O)NC(=O)[C@@H](N)CCCCN)C(C)C)[C@@H](C)O)[C@@H](C)O)C(=O)N[C@@H](C)C(=O)N[C@@H](CCCCN)C(=O)N[C@@H](CO)C(=O)N[C@@H](Cc1ccc(O)cc1)C(N)=O [α51-65, Lys--Asn--Val--Thr--Ser--Glu--Ser--Thr--Cys--Cys--Val--Ala--Lys--Ser--Tyr] (H-KNVTSESTCCVAKSY-NH2) | 237 ± 9.5 µM | –
– | CSCC[C@H](NC(=O)[C@@H](NC(=O)[C@@H](NC(=O)[C@@H](NC(=O)[C@H](CCCNC(=N)N)NC(=O)[C@H](CC(N)=O)NC(=O)[C@H](Cc1ccc(O)cc1)NC(=O)[C@H](CO)NC(=O)[C@H](CCCCN)NC(=O)[C@H](C)NC(=O)[C@@H](N)C(C)C)C(C)C)[C@@H](C)O)C(C)C)C(=O)NCC(=O)NCC(=O)N[C@@H](Cc1ccccc1)C(=O)N[C@@H](CCCCN)C(N)=O [α61-75, Val--Ala--Lys--Ser--Tyr--Asn--Arg--Val--Thr--Val--Met--Gly--Gly--Phe--Lys] (H-VAKSYNRVTVMGGFK-NH2) | > 700 µM | –
– | CSCC[C@H](N)C(=O)NCC(=O)NCC(=O)N[C@@H](Cc1ccccc1)C(=O)N[C@@H](CCCCN)C(=O)N[C@H](C(=O)N[C@@H](CCC(=O)O)C(=O)N[C@@H](CC(N)=O)C(=O)N[C@@H](Cc1c[nH]cn1)C(=O)N[C@H](C(=O)N[C@@H](C)C(=O)N[C@@H](CS)C(=O)N[C@@H](Cc1c[nH]cn1)C(=O)N[C@@H](CS)C(=O)N[C@@H](CO)C(N)=O)[C@@H](C)O)C(C)C [α71-85, Met--Gly--Gly--Phe--Lys--Val--Glu--Asn--His--Thr--Ala--Cys--His--Cys--Ser] (H-MGGFKVENHTACHCS-NH2) | > 700 µM | –
